Measured values taken from PubChem BioAssay (NCI).
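Cells were grown in 96-well plates and exposed to each compound for 48 hours at five concentrations; endpoints were interpolated linearly between bracketing concentrations, or set to the highest concentration if not reached. GI50 = concentration required for 50% inhibition of growth. TGI marks complete inhibition of growth.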

How the values were obtained:
Test in all cases: growth of human tumour cells (NCI), 48 h
[1] = system: HCT-116 colon
[2] = system: CCRF-CEM leukemia
[3] = system: OVCAR-5 ovarian
[4] = system: UACC-257 melanoma
[5] = system: HOP-62 NSCLC
[6] = system: MDA-MB-435
[7] = system: SNB-75 CNS
[8] = system: RPMI-8226 leukemia
[9] = system: SK-MEL-28 melanoma
[10] = system: U251 CNS
[11] = system: 786-0 renal
[12] = system: SF-295 CNS
[13] = system: HS 578T breast
[14] = system: OVCAR-8 ovarian
[15] = system: SNB-19 CNS
[16] = system: PC-3 prostate
[17] = system: ACHN renal
[18] = system: RXF 393 renal
[19] = system: SK-OV-3 ovarian
[20] = system: SK-MEL-2 melanoma
[21] = system: HT29 colon
[22] = system: HCT-15 colon
[23] = system: UACC-62 melanoma
[24] = system: COLO 205 colon
[25] = system: MCF7 breast
[26] = system: TK-10 renal
[27] = system: A498 renal
[28] = system: MDA-MB-231 breast
[29] = system: NCI-H23 lung
[30] = system: HOP-92 NSCLC
[31] = system: A549 NSCLC
[32] = system: SK-MEL-5 melanoma
[33] = system: SW-620 colon
[34] = system: SF-268 CNS
[35] = system: KM12 colon
[36] = system: HCC-2998 colon
[37] = system: SN12C renal
[38] = system: UO-31 renal
[39] = system: LOX IMVI melanoma
[40] = system: DU-145 prostate
[41] = system: HL-60(TB) leukemia
[42] = system: NCI-H522 lung
[43] = system: M14 melanoma
[44] = system: NCI-H226 lung
[45] = system: T-47D breast
[46] = system: CAKI-1 renal
[47] = system: MALME-3M melanoma
[48] = system: OVCAR-3 ovarian
[49] = system: MOLT-4 leukemia
[50] = system: OVCAR-4 ovarian
[51] = system: BT-549 breast
[52] = system: NCI/ADR-RES ovarian
[53] = system: IGROV1 ovarian
[54] = system: EKVX NSCLC
[55] = system: K-562 leukemia
[56] = system: NCI-H460 lung
[57] = system: SF-539 CNS
[58] = system: SR leukemia

`CNC(C)[C@H]1CCC2C3CCC4C[C@@H](N(C)C(=O)c5ccccc5)CC[C@]4(C)C3CC[C@@]21C` (some centres undefined) gave a GI50 [1] of 0.409 µM, a TGI [1] of 1.73 µM and a GI50 [2] of 0.763 µM. For the same molecule, the TGI [2] was 3.4 µM, the GI50 [3] was 2.4 µM and the TGI [3] was 14.8 µM. It also gave a GI50 [4] of 2.19 µM, a TGI [4] of 5.53 µM and a GI50 [5] of 1.43 µM. It also gave a TGI [5] of 3.17 µM, a GI50 [6] of 0.632 µM and a TGI [6] of 2.42 µM. It also gave a GI50 [7] of 1.97 µM, a TGI [7] of 5.12 µM and a GI50 [8] of 0.426 µM. It also gave a TGI [8] of 3.3 µM, a GI50 [9] of 1.36 µM and a TGI [9] of 2.9 µM. For the same molecule, the GI50 [10] was 1.25 µM, the TGI [10] was 5.4 µM and the GI50 [11] was 1.3 µM. It also gave a TGI [11] of 2.82 µM, a GI50 [12] of 1.25 µM and a TGI [12] of 3.36 µM. The GI50 [13] was 1.34 µM, the TGI [13] was 3.94 µM and the GI50 [14] was 3.44 µM. The TGI [14] was 23.2 µM, the GI50 [15] was 2.88 µM and the TGI [15] was 8.36 µM. It also gave a GI50 [16] of 0.969 µM, a TGI [16] of 3.52 µM and a GI50 [17] of 2.37 µM. For the same molecule, the TGI [17] was 9.59 µM, the GI50 [18] was 1.73 µM and the TGI [18] was 4.26 µM. It also gave a GI50 [19] of 2.06 µM, a TGI [19] of 5.29 µM and a GI50 [20] of 2.6 µM. The TGI [20] was 5.4 µM, the GI50 [21] was 0.291 µM and the TGI [21] was 1.23 µM. The GI50 [22] was 0.407 µM, the TGI [22] was 2.19 µM and the GI50 [23] was 1.02 µM. It also gave a TGI [23] of 2.64 µM, a GI50 [24] of 1.15 µM and a TGI [24] of 2.52 µM. It also gave a GI50 [25] of 0.94 µM, a TGI [25] of 3.35 µM and a GI50 [26] of 2.16 µM. It also gave a TGI [26] of 7.83 µM, a GI50 [27] of 1.65 µM and a TGI [27] of 10.2 µM. The GI50 [28] was 1.6 µM, the TGI [28] was 3.87 µM and the GI50 [29] was 0.737 µM. For the same molecule, the TGI [29] was 4.96 µM, the GI50 [30] was 0.384 µM and the TGI [30] was 3.52 µM. It also gave a GI50 [31] of 2.31 µM, a TGI [31] of 7.29 µM and a GI50 [32] of 0.613 µM. It also gave a TGI [32] of 2.02 µM, a GI50 [33] of 0.854 µM and a TGI [33] of 2.9 µM. It also gave a GI50 [34] of 1.16 µM, a TGI [34] of 3.21 µM and a GI50 [35] of 1.44 µM. For the same molecule, the TGI [35] was 5.83 µM, the GI50 [36] was 1.63 µM and the TGI [36] was 4.8 µM. It also gave a GI50 [37] of 1.82 µM, a TGI [37] of 8.34 µM and a GI50 [38] of 0.794 µM. The TGI [38] was 2.69 µM, the GI50 [39] was 0.419 µM and the TGI [39] was 1.8 µM. It also gave a GI50 [40] of 3.46 µM, a TGI [40] of 16.6 µM and a GI50 [41] of 1.58 µM. For the same molecule, the TGI [41] was 4.28 µM, the GI50 [42] was 2.32 µM and the TGI [42] was 8.5 µM. The GI50 [43] was 1.3 µM, the TGI [43] was 2.95 µM and the GI50 [44] was 2.01 µM. The TGI [44] was 12.9 µM, the GI50 [45] was 0.37 µM and the TGI [45] was 4.26 µM. It also gave a GI50 [46] of 1.54 µM, a TGI [46] of 5.13 µM and a GI50 [47] of 1.6 µM. For the same molecule, the TGI [47] was 3.99 µM, the GI50 [48] was 1.22 µM and the TGI [48] was 3.99 µM. The GI50 [49] was 1.02 µM, the TGI [49] was 3.46 µM and the GI50 [50] was 1.44 µM. For the same molecule, the TGI [50] was 16.4 µM, the GI50 [51] was 2.26 µM and the TGI [51] was 8.35 µM. For the same molecule, the GI50 [52] was 2.57 µM, the TGI [52] was 15.5 µM and the GI50 [53] was 1.96 µM. The TGI [53] was 7.73 µM, the GI50 [54] was 0.613 µM and the TGI [54] was 6.3 µM. It also gave a GI50 [55] of 0.351 µM, a TGI [55] of 2.46 µM and a GI50 [56] of 0.732 µM. The TGI [56] was 2.33 µM, the GI50 [57] was 0.739 µM and the TGI [57] was 2.01 µM.
`COc1ccc2c(c1)C1c3ccccc3CCN1CCC2` (centres undefined) gave a TGI [1] greater than 100 µM, a TGI [2] greater than 100 µM and a TGI [3] greater than 100 µM. It also gave a TGI [4] greater than 100 µM, a TGI [5] greater than 100 µM and a TGI [6] of 51.1 µM. It also gave a TGI [7] of 64.2 µM, a TGI [8] of 96.8 µM and a TGI [9] greater than 100 µM. The TGI [10] was greater than 100 µM, the TGI [11] was greater than 100 µM and the TGI [12] was 54 µM. The TGI [13] was greater than 100 µM, the TGI [14] was greater than 100 µM and the TGI [15] was greater than 100 µM. It also gave a TGI [16] greater than 100 µM, a TGI [17] greater than 100 µM and a TGI [18] greater than 100 µM. The TGI [19] was greater than 100 µM, the TGI [20] was 70.8 µM and the TGI [21] was greater than 100 µM. For the same molecule, the TGI [22] was greater than 100 µM, the TGI [23] was greater than 100 µM and the TGI [24] was greater than 100 µM. The TGI [25] was greater than 100 µM, the TGI [26] was greater than 100 µM and the TGI [27] was greater than 100 µM. It also gave a TGI [28] of 84.7 µM, a TGI [29] greater than 100 µM and a TGI [30] greater than 100 µM. It also gave a TGI [31] greater than 100 µM, a TGI [32] greater than 100 µM and a TGI [33] greater than 100 µM. For the same molecule, the TGI [34] was greater than 100 µM, the TGI [35] was greater than 100 µM and the TGI [36] was 63.5 µM. The TGI [37] was greater than 100 µM, the TGI [38] was greater than 100 µM and the TGI [39] was greater than 100 µM. For the same molecule, the TGI [40] was greater than 100 µM, the TGI [42] was 98.1 µM and the TGI [43] was greater than 100 µM. It also gave a TGI [44] greater than 100 µM, a TGI [45] greater than 100 µM and a TGI [46] greater than 100 µM. It also gave a TGI [48] greater than 100 µM, a TGI [49] greater than 100 µM and a TGI [50] greater than 100 µM. The TGI [51] was 68.2 µM, the TGI [58] was greater than 100 µM and the TGI [52] was greater than 100 µM. It also gave a TGI [53] greater than 100 µM, a TGI [54] greater than 100 µM and a TGI [55] greater than 100 µM. For the same molecule, the TGI [57] was greater than 100 µM.
